Patent publication US20070196866A1, “Modulators of ion channel trpa1” (IRM LLC, priority 2004, published 2007)
Where “and” joins values, the source holds several entries; their conditions need not be identical. Equal entries are not always repeated. Where two headings read alike, the source gives them in different places.

Experiments:
mTRPA1 [1] = target: T1, mTRPA1 (Mus musculus, UniProt Q8BLA8); test: Ratiometric calcium imaging of CHO cells expressing mTRPA1; assay type: cell-based; conditions: for increase in intracellular free calcium: ratiometric calcium imaging
T1 construct: expressed in transfected cells; host or cells: CHO cells

mouse TRPA1 [2] = target: T2, mouse TRPA1 (Mus musculus, UniProt Q8BLA8); test: FLIPR intracellular calcium assay, mouse TRPA1-expressing CHO cells; assay type: cell-based; conditions: FLIPR; for increase in intracellular calcium upon application: mTRPA1 CHO cells; for EC50: mTRPA1
T2 construct: expressed in transfected cells; host or cells: CHO cells

TRPM8 = test: Calcium imaging of TRPM8-expressing CHO cells; assay type: cell-based
Procedure: We focused on the two mTRPA1-specific compounds. Using FLIPR, we determined the concentration for half maximal activation to be 61±9 μM for cinnamaldehyde and 22±3 μM for allyl isothiocyanate. […] Ruthenium red, a known blocker of mTRPA1, blocked the cinnamaldehyde response.
(§1) We next tested if specific inhibition of PLC by U-73122 would affect TRPA1 activation by bradykinin. […] We then tested if PLC inhibition of TRPA1 was stimulus specific. […] We further tested the role of PLC inhibition on TRPM8.

B2R-expressing cells = test: Calcium imaging of BK responses in B2R-expressing cells; assay type: cell-based; conditions: 10 μM
Text: as §1

[3] = tested on: B2R/TRPA1- expressing CHO cells; test: Calcium imaging of BK responses in B2R/TRPA1-expressing CHO cells; assay type: cell-based; conditions: 10 μM
Text: as §1

adult rat DRG neurons = test: Calcium imaging of cultured adult rat DRG neurons; assay type: cell-based; conditions: 1.6 times the EC50
Text: To further test this hypothesis, and to find out if the pungent compounds described above activate TRPA1 specifically, we performed calcium imaging of adult rat DRG neurons in response to cold, menthol, cinnamaldehyde, allyl isothiocyanate, and bradykinin. […] To a large extent, cinnamaldehyde and menthol activated mutually exclusive populations of cold-responsive neurons, as our model would predict. Allyl isothiocyanate appeared less specific as it activated 63% of the cold-responsive population (including a large overlap with menthol) and 12% of the cold-insensitive population. We have used 1.6 times the EC50 values of cinnamaldehyde and allyl isothiocyanate to enable us to directly compare DRG response profiles to these compounds. […] There were no significant differences in profiles of cinnamaldehyde and allyl isothiocyanate between cultures in the presence of 1 and 100 ng/ml of NGF.
In addition to the pungent sensory compounds, we have shown that BK can activate TRPA1.
To test if garlic extracts and allicin specifically activate TRPA1 in native neurons, we performed calcium imaging of adult rat DRG neurons. […] Addition of allicin or garlic extract to cultured rat DRG neurons activated a specific population of neurons.

TRPV4 = target: T3, TRPV4 (Homo sapiens, UniProt Q9HBA0); test: Calcium imaging of TRPV4-expressing CHO cells; assay type: cell-based
T3 construct: expressed in transfected cells; host or cells: CHO cells

TRPV1 = test: Calcium imaging of TRPV1-expressing CHO cells; assay type: cell-based
dTRPA1 (dANTKM1) = target: T4, dTRPA1 (dANTKM1) (Drosophila melanogaster, UniProt Q7Z020); test: Current recording in oocytes expressing dTRPA1; assay type: cell-based
T4 construct: expressed in transfected cells; host or cells: oocytes (Xenopus, from the preceding sentences)
T4 sequence (Q7Z020 1-1197): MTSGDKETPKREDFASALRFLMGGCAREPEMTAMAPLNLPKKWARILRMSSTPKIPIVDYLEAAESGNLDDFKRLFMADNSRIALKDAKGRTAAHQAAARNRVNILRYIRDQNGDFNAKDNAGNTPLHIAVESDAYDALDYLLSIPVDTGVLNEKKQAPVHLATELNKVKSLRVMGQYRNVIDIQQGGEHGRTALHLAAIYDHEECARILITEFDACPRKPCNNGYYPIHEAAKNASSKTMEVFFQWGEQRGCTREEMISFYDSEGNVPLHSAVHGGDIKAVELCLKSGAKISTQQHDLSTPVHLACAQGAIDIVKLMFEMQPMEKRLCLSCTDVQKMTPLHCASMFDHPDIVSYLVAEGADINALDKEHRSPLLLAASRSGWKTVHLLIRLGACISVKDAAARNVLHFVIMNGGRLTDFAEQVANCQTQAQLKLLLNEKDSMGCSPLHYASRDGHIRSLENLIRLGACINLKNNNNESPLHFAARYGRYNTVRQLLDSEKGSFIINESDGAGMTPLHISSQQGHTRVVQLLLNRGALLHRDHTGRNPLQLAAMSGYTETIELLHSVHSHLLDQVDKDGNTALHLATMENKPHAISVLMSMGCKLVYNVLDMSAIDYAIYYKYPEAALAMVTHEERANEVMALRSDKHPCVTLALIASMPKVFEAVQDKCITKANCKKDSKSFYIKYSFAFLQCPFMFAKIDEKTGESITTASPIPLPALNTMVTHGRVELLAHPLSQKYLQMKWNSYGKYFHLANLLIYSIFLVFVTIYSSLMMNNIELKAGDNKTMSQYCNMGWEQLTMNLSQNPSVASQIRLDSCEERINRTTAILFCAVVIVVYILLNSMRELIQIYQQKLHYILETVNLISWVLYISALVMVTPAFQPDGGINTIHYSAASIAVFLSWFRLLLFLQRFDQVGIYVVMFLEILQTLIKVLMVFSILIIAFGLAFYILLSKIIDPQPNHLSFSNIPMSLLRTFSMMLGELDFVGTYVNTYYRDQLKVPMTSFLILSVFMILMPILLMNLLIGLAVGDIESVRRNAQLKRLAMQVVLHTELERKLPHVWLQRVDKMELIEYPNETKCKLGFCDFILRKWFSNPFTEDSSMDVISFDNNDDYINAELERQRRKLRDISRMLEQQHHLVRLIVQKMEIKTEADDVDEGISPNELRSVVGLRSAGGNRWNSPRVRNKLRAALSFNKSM

human TRPA1 (hTRPA1) = target: T5, human TRPA1 (hTRPA1) (Homo sapiens, UniProt O75762); test: Current recording in Xenopus oocytes expressing human TRPA1; assay type: cell-based
T5 construct: expressed in transfected cells; host or cells: Xenopus oocytes
Text: (§2) We also characterized the cinnamaldehyde-induced current in mTRPA1 expressing CHO cells. […] Expression of either mouse or human TRPA1 (hTRPA1) in Xenopus oocytes rendered these cells responsive to cinnamaldehyde as well as to cold temperatures. […] Indeed, the cinnamaldehyde-induced current from mTRPA1-expressing oocytes rarely returned to baseline, even after washing out the compound.
Increased currents by repeated application of cinnamaldehyde (sensitization) in oocyte recordings is in contrast to strong desensitization to cinnamaldehyde observed in mTRPA1-expressing CHO cell.

mouse TRPA1 [4] = target: T2, mouse TRPA1; test: Current recording in Xenopus oocytes expressing mouse TRPA1; assay type: cell-based
Text: as §2

[5] = Paw withdrawal latency to heat (hyperalgesia) after intraplantar injection; assay type: in vivo, mice
Procedure: To provide further evidence of the role of TRPA1 in pain sensation, we investigated if cinnamaldehyde injections could lead to hyperalgesia, an increased response to pain due to sensitization often caused by inflammation or injury. […] In contrast, no significant difference could be observed between the latencies of the two paws when vehicle was injected.
Hyperalgesia to heat is thought to involve sensitization of TRPV1. […] Note that paw withdrawal latencies to heat are higher in TRPV1^−/− mice, consistent with the partial heat sensitivity phenotype of these mice (Caterina et al., Science 288: 306-313, 2000; and Davis et al., Nature 405: 183-187, 2000). Therefore, the acute nociceptive response of cinnamaldehyde is independent of TRPV1, while the heat hyperalgesia is mediated through TRPV1.

mTRPA1 [6] = target: T1, mTRPA1; test: Whole cell patch clamp of mTRPA1-expressing CHO cells; assay type: cell-based
Text: as §2

[7] = Nociceptive behavior after intraplantar injection in mice; assay type: in vivo
TRPA1 = TRPA1 (Homo sapiens, UniProt O75762); test: Thapsigargin response of cells transiently transfected with hTRPA1 and YFP reporter; assay type: cell-based; set-up: expressed in transfected cells; conditions: same coverslip
Text: Phospholipase C (PLC) and phospholipase A2 are activated by BK signaling. Since many TRP channels are modulated by PLC activity, we tested whether downstream affectors of PLC can modulate TRPA1 function. One of the major consequences of PLC activation is the release of calcium from intracellular stores. We therefore tested if passive release of calcium from the stores with the […] endoplasmic reticulum Ca^2+-ATPase (SERCA) pump blocker thapsigargin could activate TRPA1 function. We examined the effect of thapsigargin on cells transiently-transfected with hTRPA1 and YFP reporter plasmid. This allowed for a direct comparison between TRPA1-expressing (YFP positive) and control (YFP negative) cells under the same experimental conditions (on the same coverslip).

T1 sequence (Q8BLA8 whole entry): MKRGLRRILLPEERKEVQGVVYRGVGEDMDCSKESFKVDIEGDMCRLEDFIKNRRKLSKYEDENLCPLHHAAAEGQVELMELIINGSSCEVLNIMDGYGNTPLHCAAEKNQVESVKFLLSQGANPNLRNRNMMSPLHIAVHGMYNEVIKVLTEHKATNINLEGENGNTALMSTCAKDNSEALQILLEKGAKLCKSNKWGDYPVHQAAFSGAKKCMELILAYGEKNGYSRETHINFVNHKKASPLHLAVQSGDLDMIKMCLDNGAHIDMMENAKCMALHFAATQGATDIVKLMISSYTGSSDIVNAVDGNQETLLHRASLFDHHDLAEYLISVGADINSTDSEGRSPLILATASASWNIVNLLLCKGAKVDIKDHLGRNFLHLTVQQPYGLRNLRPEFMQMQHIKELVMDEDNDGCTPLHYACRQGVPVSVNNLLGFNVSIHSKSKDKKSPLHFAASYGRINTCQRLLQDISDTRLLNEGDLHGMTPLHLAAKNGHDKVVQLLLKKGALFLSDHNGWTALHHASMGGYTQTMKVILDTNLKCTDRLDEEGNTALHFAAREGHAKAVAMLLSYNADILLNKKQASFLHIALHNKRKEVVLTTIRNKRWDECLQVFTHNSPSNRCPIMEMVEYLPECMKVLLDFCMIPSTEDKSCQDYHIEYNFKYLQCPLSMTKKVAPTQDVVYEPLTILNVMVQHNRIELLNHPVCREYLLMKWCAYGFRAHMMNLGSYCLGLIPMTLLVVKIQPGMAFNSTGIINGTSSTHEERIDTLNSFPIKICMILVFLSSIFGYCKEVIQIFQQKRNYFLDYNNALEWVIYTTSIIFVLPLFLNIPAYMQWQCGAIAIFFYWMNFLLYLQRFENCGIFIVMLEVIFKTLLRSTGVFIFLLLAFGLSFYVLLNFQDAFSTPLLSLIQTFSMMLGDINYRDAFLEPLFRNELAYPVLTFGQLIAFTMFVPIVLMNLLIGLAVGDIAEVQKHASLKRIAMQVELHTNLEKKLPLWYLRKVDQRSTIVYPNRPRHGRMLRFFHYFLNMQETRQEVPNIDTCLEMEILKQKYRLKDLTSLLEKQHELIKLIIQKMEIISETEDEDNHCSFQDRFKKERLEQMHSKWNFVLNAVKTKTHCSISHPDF
T2 sequence (Q8BLA8 whole entry): as above
T5 sequence (O75762 whole entry): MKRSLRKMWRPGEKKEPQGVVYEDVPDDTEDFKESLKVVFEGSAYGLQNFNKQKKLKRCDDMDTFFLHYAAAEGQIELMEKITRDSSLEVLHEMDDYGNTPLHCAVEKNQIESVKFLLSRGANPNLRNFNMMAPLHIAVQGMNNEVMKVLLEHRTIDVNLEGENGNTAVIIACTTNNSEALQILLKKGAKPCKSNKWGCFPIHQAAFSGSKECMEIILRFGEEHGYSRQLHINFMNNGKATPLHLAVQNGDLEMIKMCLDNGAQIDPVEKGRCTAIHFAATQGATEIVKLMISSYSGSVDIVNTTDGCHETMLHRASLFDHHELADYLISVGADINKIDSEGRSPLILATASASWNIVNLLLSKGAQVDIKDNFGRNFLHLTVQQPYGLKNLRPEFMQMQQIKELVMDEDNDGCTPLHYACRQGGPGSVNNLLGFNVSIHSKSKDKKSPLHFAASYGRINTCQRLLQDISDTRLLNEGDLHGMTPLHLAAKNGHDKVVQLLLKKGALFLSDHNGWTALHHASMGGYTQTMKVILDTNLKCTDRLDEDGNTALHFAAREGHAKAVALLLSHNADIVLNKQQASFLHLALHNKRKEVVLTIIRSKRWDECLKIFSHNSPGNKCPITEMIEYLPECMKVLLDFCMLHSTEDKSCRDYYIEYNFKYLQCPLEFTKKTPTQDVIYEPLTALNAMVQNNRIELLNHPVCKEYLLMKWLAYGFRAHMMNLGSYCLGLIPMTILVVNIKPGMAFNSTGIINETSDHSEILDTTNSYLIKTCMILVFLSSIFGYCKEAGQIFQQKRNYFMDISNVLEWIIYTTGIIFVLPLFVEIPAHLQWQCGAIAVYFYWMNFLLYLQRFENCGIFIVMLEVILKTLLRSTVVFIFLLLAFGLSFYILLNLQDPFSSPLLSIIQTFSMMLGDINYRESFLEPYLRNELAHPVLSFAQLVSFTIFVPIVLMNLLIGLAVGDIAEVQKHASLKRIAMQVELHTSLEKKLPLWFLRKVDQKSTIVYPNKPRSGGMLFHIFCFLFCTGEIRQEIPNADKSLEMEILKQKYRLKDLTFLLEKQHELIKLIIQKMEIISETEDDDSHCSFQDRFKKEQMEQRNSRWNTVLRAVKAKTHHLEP
T3 sequence (Q9HBA0 whole entry, species assumed): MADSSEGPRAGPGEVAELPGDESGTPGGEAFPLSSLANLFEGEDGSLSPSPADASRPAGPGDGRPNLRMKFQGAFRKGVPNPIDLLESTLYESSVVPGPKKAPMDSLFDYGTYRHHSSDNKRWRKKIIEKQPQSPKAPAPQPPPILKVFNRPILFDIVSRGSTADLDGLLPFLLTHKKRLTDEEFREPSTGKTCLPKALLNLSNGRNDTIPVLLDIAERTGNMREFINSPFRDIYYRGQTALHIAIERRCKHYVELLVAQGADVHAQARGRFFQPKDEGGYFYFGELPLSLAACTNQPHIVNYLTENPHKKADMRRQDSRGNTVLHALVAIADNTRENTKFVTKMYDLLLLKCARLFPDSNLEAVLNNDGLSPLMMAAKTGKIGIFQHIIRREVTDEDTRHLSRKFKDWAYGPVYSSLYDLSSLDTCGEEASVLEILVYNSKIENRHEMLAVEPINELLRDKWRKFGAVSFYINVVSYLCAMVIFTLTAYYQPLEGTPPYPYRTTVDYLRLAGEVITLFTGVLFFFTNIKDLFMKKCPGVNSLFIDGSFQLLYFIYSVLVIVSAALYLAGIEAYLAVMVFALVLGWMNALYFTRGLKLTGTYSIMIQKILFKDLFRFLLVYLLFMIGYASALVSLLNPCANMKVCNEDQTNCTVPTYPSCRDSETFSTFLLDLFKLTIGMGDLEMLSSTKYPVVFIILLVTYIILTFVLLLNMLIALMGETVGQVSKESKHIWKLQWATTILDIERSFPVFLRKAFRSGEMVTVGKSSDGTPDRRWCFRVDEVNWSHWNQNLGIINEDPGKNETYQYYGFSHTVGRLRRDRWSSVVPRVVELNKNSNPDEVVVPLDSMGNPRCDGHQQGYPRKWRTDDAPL
Chain of TRPA1 (O75762 whole entry): as the sequence (O75762 whole entry) above

CCCCC/C=C\C/C=C\C/C=C\C/C=C\CCCC(=O)O [AA, arachidonic acid]
activation of mTRPA1/TRPA1-expressing CHO cells (mTRPA1 [1]): activated

CCCCCC#CCC#CCC#CCC#CCCCC(=O)O [ETYA, 5,8,11,14-Eicosatetraynoic acid]
activation of mTRPA1/TRPA1-expressing CHO cells (mTRPA1 [1]): activated

C=CCc1ccc(O)c(OC)c1 [Eugenol]
increase in intracellular calcium upon application (mouse TRPA1 [2]): sharp increase in intracellular calcium

CCCCC[C@H](O)CC(=O)CCc1ccc(O)c(OC)c1 [Gingerol]
increase in intracellular calcium upon application (mouse TRPA1 [2]): sharp increase in intracellular calcium

N.N.N.N.N.N.N.N.N.N.N.N.N.N.[Cl-].[Cl-].[Cl-].[Cl-].[Cl-].[Cl-].[O-2].[O-2].[Ru+3].[Ru+3].[Ru+4] [Ruthenium red]
block of AA activation (mTRPA1 [1]; stimulus AA): blocked | block of the OAG response (mTRPA1 [1]; stimulus OAG): blocked | block of the cinnamaldehyde response (mTRPA1 [1]; stimulus cinnamaldehyde): blocked

COc1ccc2c(c1)CC[C@@H]1[C@@H]2CC[C@]2(C)[C@@H](NCCCCCCN3C(=O)C=CC3=O)CC[C@@H]12 [U-73122]
effect on TRPA1 activation by cinnamaldehyde (mTRPA1 [1]; stimulus cinnamaldehyde): inhibited | effect on TRPA1 activation by cold (mTRPA1 [1]; stimulus cold): strongly downregulated | effect on cold- and menthol-induced responses of TRPM8 (TRPM8; preincubation necessary for menthol block): strongly dowregulated | inhibition of BK responses in B2R-expressing cells (B2R-expressing cells): inhibited | inhibition of BK responses in B2R/TRPA1-expressing CHO cells [3]: inhibited

COc1ccc2c(c1)CC[C@@H]1[C@@H]2CC[C@]2(C)[C@@H](NCCCCCCN3C(=O)CCC3=O)CC[C@@H]12 [U-73343]
inhibition of BK responses in B2R-expressing cells (B2R-expressing cells): not | inhibition of BK responses in B2R/TRPA1-expressing CHO cells [3]: not

C=CCN=C=S [allyl isothiocyanate]
share of cold-activated (cold-responsive) DRG neurons activated (adult rat DRG neurons): 63% | share of cold-insensitive neurons activated (adult rat DRG neurons): 12% | increase in intracellular free calcium (mTRPA1 [1]): robust increase in intracellular free calcium | specificity to mTRPA1 when tested against TRPM8 and TRPV1 (mouse TRPA1 [2]): specific to mTRPA1 | EC50 (mouse TRPA1 [2]; read-out: concentration for half maximal activation (EC50)): 22 ± 3 µM | increase in intracellular calcium upon application (mouse TRPA1 [2]): sharp increase in intracellular calcium | activation of TRPM8-expressing CHO cells (TRPM8): did not activate | activation of TRPV4-expressing CHO cells (TRPV4): did not activate | activation of TRPV1-expressing CHO cells (TRPV1): did not activate

O=CC=Cc1ccccc1 [cinnamaldehyde]
share of cold-activated (cold-responsive) DRG neurons activated (adult rat DRG neurons): 39% | share of cold-insensitive neurons activated (adult rat DRG neurons): 1% | increase in intracellular free calcium (mTRPA1 [1]): robust increase in intracellular free calcium | specificity to mTRPA1 when tested against TRPM8 and TRPV1 (mouse TRPA1 [2]): specific to mTRPA1 | increase in intracellular calcium upon application (mouse TRPA1 [2]): sharp increase in intracellular calcium | EC50 (mouse TRPA1 [2]; concentration for half maximal activation (EC50)): 61 µM and ~61 µM | activation of TRPM8-expressing CHO cells (TRPM8): did not activate | response of dTRPA1-expressing oocytes (dTRPA1 (dANTKM1)): did not respond | response of human TRPA1-expressing oocytes (human TRPA1 (hTRPA1)): responsive | current of second pulse relative to first pulse (human TRPA1 (hTRPA1); repeated applications, n=6): 250±23% | response of mouse TRPA1-expressing oocytes (mouse TRPA1 [4]): responsive | heat hyperalgesia ([5]; TRPV1−/− mice): absent | paw withdraw latency, injected compared to control paws ([5]; thirty minutes after injection, p=0.009): significantly lowered | activation of TRPV4-expressing CHO cells (TRPV4): did not activate | elicited current (mTRPA1 [6]): robust desensitized current | activation of TRPV1-expressing CHO cells (TRPV1): did not activate | response to injection ([7]; TRPV1−/− mice): responded | licking and shaking of the injected hindpaw ([7]; wildtype mice, intraplantar, five minutes post-injection, cinnamaldehyde 5 mM and 16.4 mM): induced licking and shaking of the injected hindpaw

C/C=C(/C)C(=O)O[C@H]1C(C)=C2[C@H]([C@@H]1OC(=O)CCCCCCC)[C@@](C)(OC(C)=O)C[C@H](OC(=O)CCC)[C@@]1(O)[C@H]2OC(=O)[C@@]1(C)O [thapsigargin]
response in YFP-positive (TRPA1-expressing) cells compared with control cells (TRPA1): slightly smaller than in YFP-negative cells
